The source made the active and inactive calls. The rule behind the calls is not given here.
Tests used:
[1] = target: T1, G-protein coupled receptor 55 (Homo sapiens, UniProt Q9Y2T6); experiment: Antagonist activity against human GPR55 expressed in CHO cells assessed as reduction in LPI-induced beta-arrestin recruitment at 10 uM by beta-galactosidase enzyme fragment complementation method; assay type: cell-based
[2] = target: T1, G-protein coupled receptor 55; experiment: Agonist activity at human GPR55 expressed in CHO cells assessed as induction of LPI-induced beta-arrestin recruitment by beta-galactosidase enzyme fragment complementation method relative to LPI; assay type: cell-based; design: concentration or dose not given beside the values
Cannabinoid receptor 1 [3] = target: Cannabinoid receptor 1 (Rattus norvegicus, UniProt P20272); experiment: Displacement of [3H]CP55,940 from CB1 receptor in rat brain cortical membranes; assay type: cell membranes
[4] = target: T1, G-protein coupled receptor 55; experiment: Antagonist activity against human GPR55 expressed in CHO cells assessed as reduction in LPI-induced beta-arrestin recruitment by beta-galactosidase enzyme fragment complementation method; assay type: cell-based
Cannabinoid receptor 2 [5] = target: T2, Cannabinoid receptor 2 (Homo sapiens, UniProt P34972); experiment: Displacement of [3H]CP55,940 from human recombinant CB2 receptor expressed in HEK293 cells; assay type: cell-based
[6] = target: Cannabinoid receptor 1 (Rattus norvegicus) (UniProt P20272); experiment: Displacement of [3H]CP55,940 from CB1 receptor in rat brain cortical membranes at 10 uM; assay type: cell membranes
Cannabinoid receptor 2 [7] = target: T2, Cannabinoid receptor 2; experiment: Agonist activity at human recombinant CB2 receptor expressed in CHO-K1 cell membranes assessed effect on forskolin-induced cAMP accumulation at 10 uM; assay type: functional, cell-based
[8] = target: T3, N-arachidonyl glycine receptor (Homo sapiens, UniProt Q14330); experiment: Antagonist activity against human GPR18 expressed in CHO cells assessed as reduction in delta9-THC-induced beta-arrestin recruitment by beta-galactosidase enzyme fragment complementation method; assay type: cell-based
T3 sequence (Q14330 whole entry): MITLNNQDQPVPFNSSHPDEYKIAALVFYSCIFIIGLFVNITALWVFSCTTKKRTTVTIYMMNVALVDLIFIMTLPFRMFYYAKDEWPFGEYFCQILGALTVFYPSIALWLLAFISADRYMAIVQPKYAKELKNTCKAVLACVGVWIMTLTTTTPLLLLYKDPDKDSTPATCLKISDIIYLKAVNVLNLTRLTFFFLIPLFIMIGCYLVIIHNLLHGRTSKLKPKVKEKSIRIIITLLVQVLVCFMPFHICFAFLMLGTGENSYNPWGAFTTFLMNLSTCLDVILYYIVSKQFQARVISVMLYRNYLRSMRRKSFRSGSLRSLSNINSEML

Cannabinoid receptor 1 [9] = target: T4, Cannabinoid receptor 1 (Homo sapiens, UniProt P21554); experiment: Displacement of [3H]CP55,940 from human recombinant CB1 receptor expressed in CHO-K1 cells; assay type: cell-based
[10] = target: T5, N-arachidonyl glycine receptor (Homo sapiens) (UniProt Q14330); experiment: Agonist activity at human GPR18 expressed in CHO cells assessed as induction of beta-arrestin recruitment by beta-galactosidase enzyme fragment complementation method relative to delta9-THC; assay type: cell-based; design: concentration or dose not given beside the values
T5 sequence (whole entry): T3 sequence (Q14330 whole entry)

[11] = target: T5, N-arachidonyl glycine receptor (Homo sapiens); experiment: Antagonist activity against human GPR18 expressed in CHO cells assessed as reduction in delta9-THC-induced beta-arrestin recruitment at 10 uM by beta-galactosidase enzyme fragment complementation method; assay type: cell-based
[12] = target: T6, G-protein coupled receptor 35 (Homo sapiens, UniProt Q9HC97); experiment: Antagonist activity at human GPR35 assessed as reduction of zaprinast-induced beta-arrestin recruitment by beta-galactosidase enzyme fragment complementation method relative to untreated control; design: concentration or dose not given beside the values; conditions: concentration not given here
Cannabinoid receptor 1 [13] = target: T4, Cannabinoid receptor 1; experiment: Displacement of [3H]CP55,940 from human recombinant CB1 receptor expressed in CHO-K1 cells at 10 uM; assay type: cell-based
[14] = target: T6, G-protein coupled receptor 35; experiment: Antagonist activity at human GPR35 assessed as reduction of zaprinast-induced beta-arrestin recruitment by beta-galactosidase enzyme fragment complementation method
[15] = target: T6, G-protein coupled receptor 35; experiment: Agonist activity at human GPR35 assessed as induction of beta-arrestin recruitment by beta-galactosidase enzyme fragment complementation method
[16] = target: T6, G-protein coupled receptor 35; experiment: Agonist activity at human GPR35 assessed as induction of beta-arrestin recruitment by beta-galactosidase enzyme fragment complementation method relative to zaprinast; design: concentration or dose not given beside the values
Cannabinoid receptor 1 [17] = target: T4, Cannabinoid receptor 1; experiment: Intrinsic activity at human recombinant CB1 receptor expressed in HEK293 cell membranes assessed as stimulation of [35S]GTPgammaS binding at 10 uM by liquid scintillation counting method relative to CP55,940; assay type: functional
[18] = target: Cannabinoid receptor 1 (Rattus norvegicus) (UniProt P20272); experiment: Intrinsic activity at CB1 receptor in rat brain cortical membranes assessed as stimulation of [35S]GTPgammaS binding at 10 uM by liquid scintillation counting method relative to CP55,940; assay type: functional, cell membranes
Cannabinoid receptor 2 [19] = target: T2, Cannabinoid receptor 2; experiment: Displacement of [3H]CP55,940 from human recombinant CB2 receptor expressed in HEK293 cells at 10 uM; assay type: cell-based
Cannabinoid receptor 1 [20] = target: T4, Cannabinoid receptor 1; experiment: Agonist activity at human recombinant CB1 receptor expressed in CHO-K1 cell membranes assessed effect on forskolin-induced cAMP accumulation at 10 uM; assay type: functional, cell-based
[21] = Displacement of [3H]diazepam from GABAA receptor in rat brain cortical membranes; assay type: cell membranes

Chain of Cannabinoid receptor 1 (Rattus norvegicus, UniProt P20272) (P20272 whole entry, the tested form may be a part): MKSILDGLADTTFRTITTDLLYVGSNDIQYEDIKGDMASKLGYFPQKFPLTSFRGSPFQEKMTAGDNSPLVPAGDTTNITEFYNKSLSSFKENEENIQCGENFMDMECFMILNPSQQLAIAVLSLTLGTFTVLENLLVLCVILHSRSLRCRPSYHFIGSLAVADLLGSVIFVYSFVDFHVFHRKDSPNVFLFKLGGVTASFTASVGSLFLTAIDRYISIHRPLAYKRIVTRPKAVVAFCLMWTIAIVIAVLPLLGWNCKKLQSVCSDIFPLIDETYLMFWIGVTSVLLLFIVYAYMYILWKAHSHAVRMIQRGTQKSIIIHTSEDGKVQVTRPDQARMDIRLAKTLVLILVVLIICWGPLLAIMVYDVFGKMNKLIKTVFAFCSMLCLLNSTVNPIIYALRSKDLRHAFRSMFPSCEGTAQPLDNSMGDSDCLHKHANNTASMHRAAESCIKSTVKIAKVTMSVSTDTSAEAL
Chain of Cannabinoid receptor 1 (Rattus norvegicus) (P20272 whole entry): as the sequence (P20272 whole entry, the tested form may be a part) above
T6 sequence (Q9HC97 whole entry, the tested form may be a part): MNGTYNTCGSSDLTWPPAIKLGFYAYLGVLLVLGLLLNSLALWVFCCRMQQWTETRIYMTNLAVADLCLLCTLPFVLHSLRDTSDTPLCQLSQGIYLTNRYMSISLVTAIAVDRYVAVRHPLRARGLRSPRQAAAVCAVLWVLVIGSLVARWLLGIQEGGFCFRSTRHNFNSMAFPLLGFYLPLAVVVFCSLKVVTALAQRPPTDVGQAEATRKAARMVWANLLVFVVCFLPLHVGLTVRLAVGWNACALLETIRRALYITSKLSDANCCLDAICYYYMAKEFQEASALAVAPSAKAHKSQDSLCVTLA
T1 sequence (Q9Y2T6 whole entry, the tested form may be a part): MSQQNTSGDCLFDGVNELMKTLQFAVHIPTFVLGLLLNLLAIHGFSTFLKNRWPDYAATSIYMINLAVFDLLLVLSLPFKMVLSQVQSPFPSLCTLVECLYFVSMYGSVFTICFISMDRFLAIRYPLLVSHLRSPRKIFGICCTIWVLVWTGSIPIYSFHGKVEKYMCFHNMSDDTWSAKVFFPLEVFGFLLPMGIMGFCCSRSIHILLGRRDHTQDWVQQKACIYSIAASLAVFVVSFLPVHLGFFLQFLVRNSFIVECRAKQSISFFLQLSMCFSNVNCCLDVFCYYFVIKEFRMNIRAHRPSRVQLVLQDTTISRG
T4 sequence (P21554 whole entry, the tested form may be a part): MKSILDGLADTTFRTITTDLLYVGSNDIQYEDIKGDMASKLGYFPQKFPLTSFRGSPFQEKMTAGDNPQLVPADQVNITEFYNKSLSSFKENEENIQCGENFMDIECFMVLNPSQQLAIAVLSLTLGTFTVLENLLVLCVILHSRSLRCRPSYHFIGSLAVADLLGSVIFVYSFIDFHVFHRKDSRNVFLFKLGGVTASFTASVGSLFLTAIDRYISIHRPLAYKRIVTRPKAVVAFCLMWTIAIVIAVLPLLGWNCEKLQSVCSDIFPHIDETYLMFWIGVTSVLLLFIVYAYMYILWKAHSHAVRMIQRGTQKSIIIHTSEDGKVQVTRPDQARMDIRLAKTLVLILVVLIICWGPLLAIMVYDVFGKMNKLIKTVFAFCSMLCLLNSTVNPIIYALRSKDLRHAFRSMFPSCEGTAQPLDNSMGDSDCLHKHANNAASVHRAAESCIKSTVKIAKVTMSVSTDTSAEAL
T2 sequence (P34972 whole entry): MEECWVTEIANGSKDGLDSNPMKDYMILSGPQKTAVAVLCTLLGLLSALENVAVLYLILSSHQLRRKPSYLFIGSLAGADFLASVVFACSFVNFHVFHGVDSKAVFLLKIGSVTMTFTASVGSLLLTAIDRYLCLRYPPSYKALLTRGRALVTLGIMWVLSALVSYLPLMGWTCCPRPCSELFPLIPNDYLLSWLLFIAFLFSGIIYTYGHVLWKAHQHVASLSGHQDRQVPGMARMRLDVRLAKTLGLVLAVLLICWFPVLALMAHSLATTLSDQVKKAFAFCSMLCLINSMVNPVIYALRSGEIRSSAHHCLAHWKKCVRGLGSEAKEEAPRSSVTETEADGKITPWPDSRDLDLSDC

Row | Structure (SMILES) | inhibition [1] | Activity [2] | Ki (Cannabinoid receptor 1 [3]) | IC50 [4] | Ki (Cannabinoid receptor 2 [5]) | inhibition [6] | Activity (Cannabinoid receptor 2 [7]) | IC50 [8] | Ki (Cannabinoid receptor 1 [9]) | Activity [10] | inhibition [11] | inhibition (Cannabinoid receptor 1 [13]) | Intrinsic activity (Cannabinoid receptor 1 [17]) | Intrinsic activity [18] | inhibition (Cannabinoid receptor 2 [19]) | further results
1 | O=C1/C(=C/c2cccc(OCc3ccccc3Cl)c2)N=C2SCCCCN12 | 43% | 7% | > 10 µM | ≥ 10 µM | 0.98 µM | 37% | inactive | 6.48 µM | 2.29 µM | 0% | – | – | – | – | – | –
2 | COc1ccc(/C=C2\N=C3SCCCN3C2=O)c(OC)c1 | – | 0% | > 10 µM | 9.77 µM | 2.57 µM | 12% | – | > 10 µM | ≥ 10 µM | 0% | 7% | 42% | – | – | – | inhibition [12]: 20%; IC50 [14]: > 10 µM; EC50 [15]: > 10 µM; Activity [16]: -7%
3 | O=C1/C(=C/c2cccc(OCc3ccccc3)c2)N=C2SCCCN12 | 0% | 37% | 4.22 µM | > 10 µM | 1.11 µM | – | inactive | 7.22 µM | > 10 µM | 0% | – | 25% | -33% | -9% | – | –
4 | O=C1/C(=C/c2cccc(Oc3ccccc3)c2)N=C2SCCCN12 | 33% | 13% | 6.58 µM | > 10 µM | > 10 µM | – | – | 10 µM | > 10 µM | 5% | 54% | 29% | -49% | -15% | 9% | –
5 | O=C1N2CCCCSC2=NC1(c1ccccc1)c1ccccc1 | 6% | 54% | 3.94 µM | > 10 µM | > 10 µM | – | – | > 10 µM | 1.34 µM | 15% | 0% | – | -16% | -15% | 14% | Activity (Cannabinoid receptor 1 [20]): inactive
6 | O=C1/C(=C/c2cccc(OCc3ccc(Cl)cc3)c2)N=C2SCCCN12 | 0% | 21% | 8.24 µM | > 10 µM | 4.03 µM | – | – | 0.279 µM | > 10 µM | 0% | – | 0% | -16% | -7% | – | inhibition [12]: 3%; IC50 [14]: > 10 µM; Ki [21]: > 10 µM; EC50 [15]: > 10 µM; Activity [16]: -1%
7 | O=C1/C(=C/c2cccc(Oc3ccccc3)c2)N=C2SCCCCN12 | 33% | 5% | 3.63 µM | > 10 µM | > 10 µM | – | – | 14.1 µM | 1.6 µM | 1% | – | – | -37% | -21% | 21% | –
8 | O=C(Oc1cccc(/C=C2\N=C3SCCCN3C2=O)c1)c1ccccc1 | 7% | 49% | > 10 µM | > 10 µM | ≥ 10 µM | 13% | – | 6.35 µM | > 10 µM | 0% | – | 2% | – | – | 47% | Ki [21]: > 10 µM
9 | O=C1/C(=C/c2cccc(OCc3ccccc3)c2)N=C2SCCCCN12 | 21% | 4% | 2.01 µM | > 10 µM | 1.81 µM | – | inactive | 10 µM | 2.13 µM | 7% | 49% | – | -35% | -26% | – | –
10 | O=C1/C(=C/c2cccc(OCc3ccc(F)cc3)c2)N=C2SCCCCN12 | 12% | 19% | 0.73 µM | > 10 µM | 1.56 µM | – | inactive | > 10 µM | 0.85 µM | 0% | 5% | – | -16% | -16% | – | Activity (Cannabinoid receptor 1 [20]): inactive
11 | O=C1N=C2SCCCCN2C1(c1ccccc1)c1ccccc1 | 32% | 10% | 21.3 µM | > 10 µM | > 10 µM | – | – | > 10 µM | > 10 µM | 11% | 0% | 34% | -48% | -19% | 10% | –
12 | O=C1/C(=C/c2cccc(OCc3ccc(Cl)cc3Cl)c2)N=C2SCCCCN12 | 33% | 16% | 2.53 µM | > 10 µM | 1.65 µM | – | inactive | 4.61 µM | 3.18 µM | 0% | – | – | -44% | -21% | – | Ki [21]: > 10 µM
13 | O=C1N2CCCSC2=NC1(c1ccccc1)c1ccccc1 | 23% | 19% | 7.68 µM | > 10 µM | > 10 µM | – | – | > 10 µM | > 10 µM | 14% | 0% | 25% | -31% | -21% | 5% | –
14 | O=C1/C(=C/c2cccc(OCc3ccc(Cl)cc3Cl)c2)N=C2SCCCN12 | 0% | 12% | 0.55 µM | > 10 µM | 0.95 µM | – | inactive | 2.55 µM | 2.09 µM | 0% | – | – | -51% | -10% | – | Activity (Cannabinoid receptor 1 [20]): inactive; Ki [21]: > 10 µM
15 | O=C1/C(=C/c2cccc(OCc3cccc(Cl)c3)c2)N=C2SCCCCN12 | 27% | 52% | 2.46 µM | > 10 µM | > 10 µM | – | – | > 10 µM | 2.16 µM | 0% | 15% | – | -14% | -12% | 37% | inhibition [12]: 25%; IC50 [14]: > 10 µM; EC50 [15]: > 10 µM; Activity [16]: -3%
16 | O=C1/C(=C/c2ccccc2)N=C2SCCCN12 | 25% | 32% | > 10 µM | > 10 µM | > 10 µM | 1% | – | > 10 µM | > 10 µM | 7% | 5% | 40% | – | – | 18% | inhibition [12]: 12%; IC50 [14]: > 10 µM; EC50 [15]: > 10 µM; Activity [16]: -5%
17 | O=C1N=C2SCCCN2C1(c1ccccc1)c1ccccc1 | 2% | 53% | > 10 µM | > 10 µM | > 10 µM | 4% | – | > 10 µM | > 10 µM | 11% | 0% | 13% | – | – | 9% | –
18 | CC(C)c1ccc(/C=C2\N=C3SCCCN3C2=O)cc1 | 38% | 13% | > 10 µM | > 10 µM | > 10 µM | 6% | – | > 10 µM | > 10 µM | 0% | 4% | 12% | – | – | 17% | –
19 | O=C1/C(=C/c2cccc([N+](=O)[O-])c2)N=C2SCCCN12 | 20% | 21% | > 10 µM | > 10 µM | > 10 µM | 8% | – | > 10 µM | > 10 µM | 2% | 6% | 19% | – | – | 10% | –

— ChEMBL document CHEMBL3217528, “Bicyclic imidazole-4-one derivatives: a new class of antagonists for the orphan G protein-coupled receptors GPR18 and GPR55” (Medchemcomm, 2014)
